# Results from patent publication US20230293526A1, “METHOD FOR TREATING CANCER WITH A REVERSE TRANSCRIPTASE INHIBITOR” (PrimeFour Therapeutics, Inc., priority 2020, published 2023).
# Columns and labels:
# human LINE-1 = experiment: Human LINE-1 (L1) retrotransposition dual-luciferase reporter assay in HeLa cells; format: cell-based; settings: Homo sapiens, HeLa, 72 h, read-out: Human LINE-1 IC50 (Human L1 activity inhibition)
# Method in brief: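 HeLa cells transfected with dual-luciferase L1 plasmid pYX017 (100 ng/well), dosed immediately after with serially diluted compounds (0.2% DMSO final) in triplicate and incubated 72 h at 37 °C. Relative L1 activity = Firefly/Renilla ×10,000; IC50 from logistic non-linear regression.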
# cancer cell lines = experiment: Cancer cell proliferation activity of representative nucleosides, CellTiterGlo 72 h (Example 7, Tables 8 and 9); format: cell-based; settings: 72 h
# Method in brief: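 Cancer cell lines seeded and incubated at 37° C overnight, then exposed to nucleosides (final DMSO 0.1%) for 72 h at 37° C with 5% or 10% CO2. Viability read by CellTiterGlo luminescence and normalized to 0.1% DMSO (100%) and 10 μM staurosporine (0%) controls.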
smiles,measurement,setting,value
C#C[C@]1(CO)O[C@@H](n2cc(F)c(=O)[nH]c2=O)C[C@@H]1O [compound 15],IC50,human LINE-1,0.833 µM
same,IC50,"cancer cell lines; 72 h, 5637, bladder",0.37 µM
same,IC50,"cancer cell lines; CLS439, bladder",> 50 µM
same,IC50,"cancer cell lines; HS729, muscle",> 50 µM
same,IC50,"cancer cell lines; J82, bladder",> 50 µM
same,IC50,"cancer cell lines; JAR, placenta",> 50 µM
same,IC50,"cancer cell lines; MT3, breast",> 50 µM
same,IC50,"cancer cell lines; PC3, prostate",> 50 µM
same,IC50,"cancer cell lines; RD, muscle",> 50 µM
same,IC50,"cancer cell lines; T24, bladder",> 50 µM
same,IC50,"cancer cell lines; Homo sapiens, 22Rv1, 72 h, 22RV1, prostate",3.69 µM
same,IC50,"cancer cell lines; Homo sapiens, 786-0, 72 h, 786O, kidney",> 50 µM
same,IC50,"cancer cell lines; Homo sapiens, A204, 72 h, A204, muscle",> 50 µM
same,IC50,"cancer cell lines; Homo sapiens, A549, 72 h, A549, lung",> 50 µM
same,IC50,"cancer cell lines; Homo sapiens, A673, 72 h, A673, bone",> 50 µM
same,IC50,"cancer cell lines; Homo sapiens, A2780, 72 h, A2780, ovary",> 50 µM
same,IC50,"cancer cell lines; Homo sapiens, A-375, 72 h, A375, skin",> 50 µM
same,IC50,"cancer cell lines; Homo sapiens, A-431, 72 h, A431, skin",1.42 µM
same,IC50,"cancer cell lines; Homo sapiens, ACHN, kidney",0.94 µM
same,IC50,"cancer cell lines; Homo sapiens, ASPC1, 72 h, ASPC1, pancreas",0.49 µM
same,IC50,"cancer cell lines; Homo sapiens, BT-20, 72 h, BT20, breast",> 50 µM
same,IC50,"cancer cell lines; Homo sapiens, BXPC-3, 72 h, BXPC3, pancreas",0.59 µM
same,IC50,"cancer cell lines; Homo sapiens, C-33-A, C33A, endometrial",3.07 µM
same,IC50,"cancer cell lines; Homo sapiens, CAKI-1, 72 h, CAKI1, kidney",> 50 µM
same,IC50,"cancer cell lines; Homo sapiens, COLO 205, 72 h, COLO205, colon",0.87 µM
same,IC50,"cancer cell lines; Homo sapiens, COLO-678, 72 h, COLO678, colon",> 50 µM
same,IC50,"cancer cell lines; Homo sapiens, Ca-Ski, CASKI, endometrial",> 50 µM
same,IC50,"cancer cell lines; Homo sapiens, Caco-2, 72 h, CACO2, colon",> 50 µM
same,IC50,"cancer cell lines; Homo sapiens, Calu-6, 72 h, CALU6, lung",> 50 µM
same,IC50,"cancer cell lines; Homo sapiens, DLD-1, 72 h, DLD1, colon",> 50 µM
same,IC50,"cancer cell lines; Homo sapiens, DU-145, 72 h, DU145, prostate",> 50 µM
same,IC50,"cancer cell lines; Homo sapiens, EFO-21, 72 h, EFO21, ovary",> 50 µM
same,IC50,"cancer cell lines; Homo sapiens, EJ-28, 72 h, EJ28, bladder",> 50 µM
same,IC50,"cancer cell lines; Homo sapiens, Granta-519, 72 h, GRANTA-519, hematological",0.35 µM
same,IC50,"cancer cell lines; Homo sapiens, HCT-15, 72 h, HCT15, colon",> 50 µM
same,IC50,"cancer cell lines; Homo sapiens, HCT-116, 72 h, HCT116, colon",> 50 µM
same,IC50,"cancer cell lines; Homo sapiens, HEK293, 72 h, HEK293, kidney",> 50 µM
same,IC50,"cancer cell lines; Homo sapiens, HL-60, 72 h, HL-60, hematological",> 50 µM
same,IC50,"cancer cell lines; Homo sapiens, HT-29, 72 h, HT29, colon",> 50 µM
same,IC50,"cancer cell lines; Homo sapiens, HT-1080, 72 h, HT1080, connective tissue",> 50 µM
same,IC50,"cancer cell lines; Homo sapiens, HeLa, endometrial",> 50 µM
same,IC50,"cancer cell lines; Homo sapiens, HepG2, 72 h, HEPG2, liver",> 50 µM
same,IC50,"cancer cell lines; Homo sapiens, Hs-578T, HS578T, breast",> 50 µM
same,IC50,"cancer cell lines; Homo sapiens, IGROV-1, 72 h, IGROV1, ovary",> 50 µM
same,IC50,"cancer cell lines; Homo sapiens, IMR-90, 72 h, IMR90, lung",> 50 µM
same,IC50,"cancer cell lines; Homo sapiens, JEG-3, 72 h, JEG3, placenta",> 50 µM
same,IC50,"cancer cell lines; Homo sapiens, JIMT-1, 72 h, JIMT1, breast",> 50 µM
same,IC50,"cancer cell lines; Homo sapiens, K562, 72 h, K-562, hematological",> 50 µM
same,IC50,"cancer cell lines; Homo sapiens, Kasumi 1, 72 h, KASUMI-1, hematological",> 50 µM
same,IC50,"cancer cell lines; Homo sapiens, L-363, 72 h, L-363, hematological",> 50 µM
same,IC50,"cancer cell lines; Homo sapiens, LoVo, colon",2.06 µM
same,IC50,"cancer cell lines; Homo sapiens, MCF7, 72 h, MCF7, breast",> 50 µM
same,IC50,"cancer cell lines; Homo sapiens, MDA-MB-231, 72 h, MDAMB231, breast",> 50 µM
same,IC50,"cancer cell lines; Homo sapiens, MDA-MB-435, 72 h, MDAMB435, skin",> 50 µM
same,IC50,"cancer cell lines; Homo sapiens, MDA-MB-436, 72 h, MDAMB436, breast",> 50 µM
same,IC50,"cancer cell lines; Homo sapiens, MDA-MB-468, 72 h, MDAMB468, breast",> 50 µM
same,IC50,"cancer cell lines; Homo sapiens, MG-63, 72 h, MG63, bone",> 50 µM
same,IC50,"cancer cell lines; Homo sapiens, MHH-ES-1, 72 h, MHHES1, bone",> 50 µM
same,IC50,"cancer cell lines; Homo sapiens, MIA PaCa-2, 72 h, MIAPACA2, pancreas",> 50 µM
same,IC50,"cancer cell lines; Homo sapiens, MINO, hematological",0.06 µM
same,IC50,"cancer cell lines; Homo sapiens, MV4-11, 72 h, MV4-11, hematological",1.72 µM
same,IC50,"cancer cell lines; Homo sapiens, NCI-H23, 72 h, NCI-H23, lung",> 50 µM
same,IC50,"cancer cell lines; Homo sapiens, NCI-H82, 72 h, NCIH82, lung",> 50 µM
same,IC50,"cancer cell lines; Homo sapiens, NCI-H292, 72 h, NCIH292, lung",> 50 µM
same,IC50,"cancer cell lines; Homo sapiens, NCI-H460, 72 h, NCIH460, ung",> 50 µM
same,IC50,"cancer cell lines; Homo sapiens, OVCAR-3, 72 h, OVCAR3, ovary",> 50 µM
same,IC50,"cancer cell lines; Homo sapiens, OVCAR-4, 72 h, OVCAR4, ovary",> 50 µM
same,IC50,"cancer cell lines; Homo sapiens, PANC-1, 72 h, PANC1, pancreas",> 50 µM
same,IC50,"cancer cell lines; Homo sapiens, PLC-PRF-5, 72 h, PLCPRF5, liver",> 50 µM
same,IC50,"cancer cell lines; Homo sapiens, Panc1005, 72 h, PANC1005, pancreas",> 50 µM
same,IC50,"cancer cell lines; Homo sapiens, Ramos, hematological",1.18 µM
same,IC50,"cancer cell lines; Homo sapiens, SAOS-2, 72 h, SAOS2, bone",> 50 µM
same,IC50,"cancer cell lines; Homo sapiens, SF-268, 72 h, SF268, brain",> 50 µM
same,IC50,"cancer cell lines; Homo sapiens, SF-295, 72 h, SF295, brain",> 50 µM
same,IC50,"cancer cell lines; Homo sapiens, SK-BR-3, 72 h, SKBR3, breast",0.37 µM
same,IC50,"cancer cell lines; Homo sapiens, SK-HEP1, 72 h, SKHEP1, liver",> 50 µM
same,IC50,"cancer cell lines; Homo sapiens, SK-LMS-1, 72 h, SKLMS1, uterus",> 50 µM
same,IC50,"cancer cell lines; Homo sapiens, SK-MEL-5, 72 h, SKMEL5, skin",> 50 µM
same,IC50,"cancer cell lines; Homo sapiens, SK-MEL-28, 72 h, SKMEL28, skin",> 50 µM
same,IC50,"cancer cell lines; Homo sapiens, SK-N-AS, SKNAS, brain",> 50 µM
same,IC50,"cancer cell lines; Homo sapiens, SK-N-SH, SKNSH, brain",> 50 µM
same,IC50,"cancer cell lines; Homo sapiens, SK-OV-3, 72 h, SKOV3, ovary",> 50 µM
same,IC50,"cancer cell lines; Homo sapiens, SNB-75, 72 h, SNB75, brain",> 50 µM
same,IC50,"cancer cell lines; Homo sapiens, SU-DHL10, 72 h, SU-DHL-10, hematological",3.86 µM
same,IC50,"cancer cell lines; Homo sapiens, SU-DHL-6, 72 h, SU-DHL-6, hematological",1.3 µM
same,IC50,"cancer cell lines; Homo sapiens, SW-620, 72 h, SW620, colon",> 50 µM
same,IC50,"cancer cell lines; Homo sapiens, TE-671, 72 h, TE671, muscle",> 50 µM
same,IC50,"cancer cell lines; Homo sapiens, THP-1, 72 h, THP-1, hematological",> 50 µM
same,IC50,"cancer cell lines; Homo sapiens, U2OS, bone",> 50 µM
same,IC50,"cancer cell lines; Homo sapiens, U-87 MG, U87MG, brain",> 50 µM
same,IC50,"cancer cell lines; Homo sapiens, UMUC3, 72 h, UMUC3, bladder",> 50 µM
same,IC50,"cancer cell lines; Homo sapiens, UO-31, 72 h, UO31, kidney",> 50 µM
same,IC50,"cancer cell lines; Homo sapiens, WSU-NHL, hematological",0.87 µM
same,IC50,"cancer cell lines; NCI-H358M, NCIH358M, lung",0.67 µM
same,IC50,"cancer cell lines; PBMC, hematological",> 50 µM
same,IC50,"cancer cell lines; RD-ES, RDES, bone",> 50 µM
